# Measured values as given in paper PMC6641291 (ACS Omega, 2018).
# Target: T1, δ^1-pyrroline-5-carboxylate reductase (P5C reductase) (Arabidopsis thaliana, UniProt P54904)
# T1 sequence (P54904 1-276): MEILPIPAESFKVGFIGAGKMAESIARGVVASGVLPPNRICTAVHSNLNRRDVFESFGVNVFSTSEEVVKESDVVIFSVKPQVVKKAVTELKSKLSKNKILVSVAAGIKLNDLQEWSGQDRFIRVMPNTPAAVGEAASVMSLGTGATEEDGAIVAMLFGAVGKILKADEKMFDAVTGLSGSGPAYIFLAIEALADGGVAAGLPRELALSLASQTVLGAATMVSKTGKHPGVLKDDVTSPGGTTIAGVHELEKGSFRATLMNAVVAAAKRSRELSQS
# Assay: P5C-dependent NADH oxidation, absorbance at […] nm
# Type: biochemical
row,Compound,IC50
1,"O=P(O)(O)[C@@H]1CCCN1 [(R)-1, Pyrrolidin-2-ylphosphonic Acid]",24 ± 4 mM
2,"O=P(O)(O)[C@@H]1CCCON1 [(R)-6, (R)-(−)-1,2-oxazinan-3-ylphosphonic acid]",45 ± 19 mM
3,O=C(O)[C@@H]1CCCN1 [proline],84 ± 3 mM
4,"O=P(O)(O)[C@H]1CCCN1 [(S)-1, Pyrrolidin-2-ylphosphonic Acid]",21 ± 2 mM
